# Laboratory results taken from patent US20120277265A1, “NOVEL POLYQUINOLINE DERIVATIVES AND THE THERAPEUTIC USE THEREOF” (CENTRE NATIONAL DE LA RECHERCHE SCIENTIFIQUE (C.N.R.S.), priority 2005, published 2012).
# Like-named read-outs stand apart in the source and are kept apart here.
# How the values were obtained:
# [1] = tested on: Salmonella tiphimurium TA100; assay: AMES test, TA100
# From the text: (§1) AMES test: The method is adapted from D. M. Maron and B. N. Ames, Mutat.
# (§2) The test involves evaluating the potential of the tested molecules to induce mutation which is reverse to the histidine locus of these lines. These two lines were provided by Dr. Bruce N. Ames (University of California, Berkeley, USA). They are resistant to Ampicillin and sensitive to Tetracycline. They are not mutant toward rfa, UvγV and UvγA. The line TA98 (his D3052) contains a mutation of reading phase (GC) whereas the line TA100 (his G46) contains a substitution of base pair (GC).
# (§3) The compounds to be tested were dissolved in 100% of DMSO (the solvent) and diluted logarithmically (by a factor of 10) so as to obtain 4 test concentrations of 30,000; 3,000; 300 and 30 μg/ml. Each series of 0.1 ml of stock solution to be tested, 0.1 ml of test line and of culture medium with or without 0.5 ml of enzymatic homogenate (S9) of rat liver microsome were mixed with 2 ml of molten agarose (containing 0.5 mM of histidine and 0.5 mM of biotin). This mixture was placed on the surface of a plate of minimal agarose glucose medium (30 ml for each Petri dish) so as to obtain final concentrations of compound to be tested of 3,000; 300; 30 and 3 μγ/plate. The plates were then incubated at 37° C. for 48 hours. […] The revertant colonies of the test lines were counted using a colony counter (Sigma). […] A compound inducing a number of colonies <50% of cells obtained for the solvent alone was deemed to be toxic for the bacteria tested. All the experiments were carried out in triplicate.
# [2] = molecular target: T1, copper complexes of Aβ1-42 peptide (Homo sapiens, UniProt P05067); assay: Stability of H2O2 during the H2O2 production inhibition experiments (known amount of H2O2 added); type: biochemical; settings: Aβ1-42 0.2 μM, Cu(II) 0.4 μM, ascorbate 10 μM, ligand 0.4 μM
# T1 construct: The β-amyloid peptide Aβ1-42 (Aβ1-42) was synthesised, purified (to a purity greater than 95%); made in house; host or cells: chemical peptide synthesis (no expression host)
# Description: (§4) The final concentrations are given. The reactions were carried out in the dark in mM sodium phosphate buffer (pH=7.4). Aβ1-42 (0.2 μM) and CuCl2 (0.4 μM) were pre-incubated for 1 hour at 37° C. while stirring at 1,400 rpm in 375 μl of buffer. Then 2 μl of a solution of ligand to be investigated (0.2; 0.4 or 0.8 μM) in DMSO were added. After incubation for a further hour, 2 μl of an aqueous sodium ascorbate solution (10 μM) were added and incubation was continued for 5 min while stirring. The amount of H2O2 produced is then quantified using an Amplex Red H2O2/HRP Assay Kit (Molecular Probes) while adding a volume of assay reagent to the samples, then incubating them for 1 hour at 37° C. while stirring at 500 rpm. H2O2 is then detected by spectrophotometry at 563 nm. Quantification is carried out on the basis of standard curves obtained with known amounts of H2O2.
# (§5) Experiments were also carried out in the presence of a known amount of H2O2, added just before or just after the addition of sodium ascorbate, in order to investigate the stability of H2O2 under the experimental conditions employed.
# [3] = tested on: copper complexes of Aβ1-42 peptide; assay: as above; type: biochemical; settings: for theoretical value of H2O2 if there is no degradation (in parentheses): ascorbate, ligand; for H2O2 assayed: no Aβ1-42, Cu(II) 0.4 μM, ligand 0.4 μM
# Description: as §4, §5
# [4] = tested on: TA98 and TA100 Salmonella strains; assay: AMES test, statements on both lines; settings: adapted Ames test, TA98 and/or TA100, absence or presence of S9
# From the text: as §1, §2
# The compounds to be tested were dissolved in 100% of DMSO (the solvent) and diluted logarithmically (by a factor of 10) so as to obtain 4 test concentrations of 30,000; 3,000; 300 and 30 μg/ml. Each series of 0.1 ml of stock solution to be tested, 0.1 ml of test line and of culture medium with or without 0.5 ml of enzymatic homogenate (S9) of rat liver microsome were mixed with 2 ml of molten agarose (containing 0.5 mM of histidine and 0.5 mM of biotin). This mixture was placed on the surface of a plate of minimal agarose glucose medium (30 ml for each Petri dish) so as to obtain final concentrations of compound to be tested of 3,000; 300; 30 and 3 μγ/plate. The plates were then incubated at 37° C. for 48 hours. […] The revertant colonies of the test lines were counted using a colony counter (Sigma). […]
# [5] = molecular target: T1, copper complexes of Aβ1-42 peptide; assay: Hydrogen peroxide produced by Aβ1-42 in the presence of CuCl2, ascorbate, air and ligand (Amplex Red H2O2/HRP); type: biochemical; settings: for amount of H2O2, 0.2 μM Aβ1-42 Cu/Aβ = 2 / amount of H2O2, 0.5 μM Aβ1-42 Cu/Aβ = 0.75: CuCl2 0.4 μM, ascorbate 10 μM, air
# [6] = as above; type: biochemical; settings: CuCl2 0.4 μM, ascorbate 10 μM, air
# [7] = tested on: Salmonella tiphimurium TA98; assay: AMES test, TA98
# From the text: as §1, §2, §3
# [8] = Number of ZnCl2 equivalents for the ligand to be entirely in the form of Zn(II) complex; type: binding; settings: competition with the tris buffer and the DMSO
# [9] = value per plate, Addition of S9: no
# [10] = value per plate, Addition of S9: yes
# [11] = 3.0 nanomoles H2O2 added just after ascorbate
# [12] = Aβ1-42 0.2 μM, Cu(II), 3.0 nanomoles H2O2 added just after ascorbate
# T1 sequence (P05067 672-713 limits assumed, one chain of several): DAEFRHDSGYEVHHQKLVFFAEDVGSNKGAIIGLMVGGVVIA
Structure (SMILES),"TA100 Cytotoxicity [1, 9] [µg]","TA100 Cytotoxicity [1, 10] [µg]","TA100 Mutagenic effect [1, 10] [µg]","H2O2 assayed [2, 11]",H2O2 assayed ([2]; no H2O2 added) [nmol],"theoretical value of H2O2 if there is no degradation (in parentheses) [3, 12]","amount of H2O2, 0.2 μM Aβ1-42 Cu/Aβ = 2 ([5]; ligand 1 eq/Cu(II) (0.4 μM)) [nmol]","amount of H2O2, 0.5 μM Aβ1-42 Cu/Aβ = 0.75 ([5]; ligand 1 eq/Cu(II) (0.4 μM)) [nmol]","amount of H2O2, without Aβ1-42 ([6]; ligand 1 eq/Cu(II) (0.4 μM)) [nmol]","TA98 Cytotoxicity [7, 9] [µg]","TA98 Mutagenic effect [7, 9] [µg]","TA98 Cytotoxicity [7, 10] [µg]","TA98 Mutagenic effect [7, 10] [µg]",further results
"CC(C)(c1ccc2cccc(O)c2n1)c1ccc2cccc(O)c2n1 [Compound 3, 2,2′-(2,2-propanediyl)-bis(8-hydroxyquinoline)]",>3000,>3000,>3000,3.7 (3.7) nanomoles,0.71 ± 0.02,3.7 (3.7) nanomoles,0.71 ± 0.02,0.55,0.84,>3000,>3000,>3000,>3000,"TA100 Mutagenic effect [1, 9]: >3000 µg; H2O2 assayed ([2]; 3.0 nanomoles H2O2 added just before the ascorbate): 3.8 nmol; theoretical value of H2O2 if there is no degradation (in parentheses) ([3]; Aβ1-42 0.2 μM, Cu(II), 3.0 nanomoles H2O2 added just before the ascorbate): 3.7 nmol; H2O2 assayed ([3]; ascorbate 10 μM, 3.0 nanomoles H2O2 added just after ascorbate): 3.8 (3.8) nanomoles; H2O2 assayed ([3]; ascorbate 10 μM, no H2O2 added): 0.84 nmol; H2O2 assayed ([3]; no ascorbate, 3.0 nanomoles H2O2 added): 3.1 nmol; theoretical value of H2O2 if there is no degradation (in parentheses) ([3]; no Aβ1-42, Cu(II), 3.0 nanomoles H2O2 added just after ascorbate): 3.8 (3.8) nanomoles; mutagenic or bactericidal effect [4]: no mutagenic or bactericidal effect; H2O2 production as a function of the Cu/Aβ1-42 ratio ([5]; FIG. 11, 1 equivalent of ligand per Cu(II) (0.4 μM), Aβ1-42 0.2 to 0.53 μM): virtually inhibit H2O2 production; amount of H2O2, 0.2 μM Aβ1-42 Cu/Aβ = 2 ([5]; ligand 0.5 eq/Cu(II)): 0.94 nmol; amount of H2O2, 0.2 μM Aβ1-42 Cu/Aβ = 2 ([5]; ligand 1.5 eq/Cu(II)): 0.49 nmol; amount of H2O2, without Aβ1-42 ([6]; ligand 0.5 eq/Cu(II)): 2.12 nmol"
"CC(C)(c1ccc2c(Cl)ccc(O)c2n1)c1ccc2c(Cl)ccc(O)c2n1 [Compound 4, 2,2′-(2,2-Propanediyl)-bis(5-chloro-8-hydroxyquinoline)]",–,–,–,3.3 nmol,0.37 ± 0.09,3.4 nmol,0.37 ± 0.09,0.35,0.12,–,–,–,–,–
"Oc1cccc2ccc(C(F)(F)c3ccc4cccc(O)c4n3)nc12 [Compound 5, 2,2′-(Difluoromethanediyl)-bis(8-hydroxyquinoline)]",300,>3000,>3000,3.4 nmol,0.55 ± 0.08,3.5 nmol,0.55 ± 0.08,–,0.39,>3000,>3000,>3000,>3000,bactericidal effect ([1]; TA100 line in the absence of S9): ≥ 300 μg/plate
"O=C(c1ccc2cccc(O)c2n1)c1ccc2cccc(O)c2n1 [Compound 6, Bis(8-hydroxy-2-quinoline)methanone]",–,–,–,3.6 nmol,0.87 ± 0.11,3.9 nmol,0.86 ± 0.11,–,0.82,–,–,–,–,–
"c1cnc2c(Nc3cccc4cccnc34)cccc2c1 [Compound 12, Bis(8-quinoline)amine]",>3000,>3000,–,1.7 nmol,0.47 ± 0.09,3.4 nmol,0.47 ± 0.09,–,0.40,>3000,–,>3000,–,TA100 Mutagenic effect [1]: >3000 µg; degradation of added H2O2 ([3]; Table 7 conditions): none of the added H2O2 is found again; number of ZnCl2 equivalent for 15 μM of ligand to be entirely in the form of Zn(II) complex [8]: 100 eq ZnCl2; TA98 Mutagenic effect [7]: >3000 µg
